Patent US4910191A, “19-substituted progesterone derivatives useful as 19-hydroxylase inhibitors” (Merrell Dow Pharmaceuticals Inc., priority 1988, dated 1990)

Columns and labels:
weanling SHR rats = conditions: administered to weanling SHR rats; Melby et al., 1987; cited from earlier work
adrenal 19-hydroxylase = assay: in vitro radioenzymatic assay, inhibition of adrenal 19-hydroxylase (19-hydroxylation of radiolabeled deoxycorticosterone); assay type: biochemical, rat, hamster, bovine, primate, or human
Method: The compounds of the present invention are useful as 19-hydroxylase inhibitors and antihypertensive agents. […] The test compounds are solubilized in buffer/solvent media at concentrations ranging from 1 nM to 50 μM, then added to assay tubes containing an adrenal mitochondrial suspension, i.e., rat, hamster, bovine, primate, or human, an NADPH-generating system, and radiolabeled deoxycorticosterone. The assay components are incubated for varying time intervals at 25°-37° C. and the reaction is quenched. The hydroxylated corticoids [i.e., 19--HO--DOC (19-hydroxydesoxycorticosterone), 18--HO--DOC(18-hydroxydeoxycorticosterone) and corticosterone] are extracted with organic solvent and isolated by standard chromatographic procedures.

[1] = Funder et al., 1978; cited from earlier work
[2] = times the potency of DOC; Kagawa et al., 1957; cited from earlier work
bad bladder epithelia = conditions: relative to aldosterone; Perrone et al., 1981; cited from earlier work

SMILES: C#CC[C@]12CCC(=O)C=C1CC[C@@H]1[C@@H]2CC[C@]2(C)C(=O)CC[C@@H]12 [10-(2-propynyl)estr-4-ene-3,17-dione]
- development of hypertension (weanling SHR rats): retards the development of hypertension
- levels of urinary free 19-norDOC (weanling SHR rats): reduces the levels of urinary free 19-norDOC

SMILES: C#CC[C@]12CCC(=O)C=C1CC[C@@H]1[C@@H]2CC[C@]2(C)[C@@H](C(=O)CO)CC[C@@H]12 [21-hydroxy-10-(2-propynyl)-19-norpregn-4-ene-3,20-dione]
- IC50 (adrenal 19-hydroxylase; adrenal mitochondrial suspension, NADPH-generating system, radiolabeled deoxycorticosterone, 25°-37° C., time-dependent, read-out: IC50 (time-dependent enzyme inhibition)): ~50 nM
- affinity for the 19-hydroxylase active site relative to the natural substrate (DOC) (adrenal 19-hydroxylase; greater affinity than DOC): 12 times

SMILES: C[C@]12CC[C@H]3[C@@H](CCC4=CC(=O)CC[C@@H]43)[C@@H]1CC[C@@H]2C(=O)CO [Example 19-norDOC, 19-nordeoxycorticosterone]
- hypertensive activity compared to deoxycorticosterone (DOC) [1]: much higher hypertensive activity
- Na-retaining activity, potency relative to DOC [2]: two to five
- stimulating Na^+ transport across bladder epithelia, potency vs aldosterone (bad bladder epithelia): equipotent to aldosterone
